Results reported in ChEMBL document CHEMBL1141151, “High-affinity epidermal growth factor receptor (EGFR) irreversible inhibitors with diminished chemical reactivities as positron emission tomography (PET)-imaging agent candidates of EGFR overexpressing tumors” (J Med Chem, 2005).

Tests used:
[1] = target: T1, Epidermal growth factor receptor (Homo sapiens, UniProt P00533); experiment: (§1) Inhibition of EGF Receptor autophosphorylation in A431 cell lysate
[2] = target: T1, Epidermal growth factor receptor; experiment: as §1; remark: listed apart in the source
[3] = target: T1, Epidermal growth factor receptor; experiment: as §1; remark: listed apart in the source
[4] = target: Platelet-derived growth factor receptor (Homo sapiens, UniProt P09619+P16234); experiment: Inhibition of human PDGFR kinase in intact NIHPDGFR cells; type: cell-based
[5] = target: T2, Receptor tyrosine-protein kinase erbB-2 (Homo sapiens, UniProt P04626); experiment: Inhibition of HER2 kinase in intact CSH12 cells; type: cell-based
T2 sequence (P04626 whole entry): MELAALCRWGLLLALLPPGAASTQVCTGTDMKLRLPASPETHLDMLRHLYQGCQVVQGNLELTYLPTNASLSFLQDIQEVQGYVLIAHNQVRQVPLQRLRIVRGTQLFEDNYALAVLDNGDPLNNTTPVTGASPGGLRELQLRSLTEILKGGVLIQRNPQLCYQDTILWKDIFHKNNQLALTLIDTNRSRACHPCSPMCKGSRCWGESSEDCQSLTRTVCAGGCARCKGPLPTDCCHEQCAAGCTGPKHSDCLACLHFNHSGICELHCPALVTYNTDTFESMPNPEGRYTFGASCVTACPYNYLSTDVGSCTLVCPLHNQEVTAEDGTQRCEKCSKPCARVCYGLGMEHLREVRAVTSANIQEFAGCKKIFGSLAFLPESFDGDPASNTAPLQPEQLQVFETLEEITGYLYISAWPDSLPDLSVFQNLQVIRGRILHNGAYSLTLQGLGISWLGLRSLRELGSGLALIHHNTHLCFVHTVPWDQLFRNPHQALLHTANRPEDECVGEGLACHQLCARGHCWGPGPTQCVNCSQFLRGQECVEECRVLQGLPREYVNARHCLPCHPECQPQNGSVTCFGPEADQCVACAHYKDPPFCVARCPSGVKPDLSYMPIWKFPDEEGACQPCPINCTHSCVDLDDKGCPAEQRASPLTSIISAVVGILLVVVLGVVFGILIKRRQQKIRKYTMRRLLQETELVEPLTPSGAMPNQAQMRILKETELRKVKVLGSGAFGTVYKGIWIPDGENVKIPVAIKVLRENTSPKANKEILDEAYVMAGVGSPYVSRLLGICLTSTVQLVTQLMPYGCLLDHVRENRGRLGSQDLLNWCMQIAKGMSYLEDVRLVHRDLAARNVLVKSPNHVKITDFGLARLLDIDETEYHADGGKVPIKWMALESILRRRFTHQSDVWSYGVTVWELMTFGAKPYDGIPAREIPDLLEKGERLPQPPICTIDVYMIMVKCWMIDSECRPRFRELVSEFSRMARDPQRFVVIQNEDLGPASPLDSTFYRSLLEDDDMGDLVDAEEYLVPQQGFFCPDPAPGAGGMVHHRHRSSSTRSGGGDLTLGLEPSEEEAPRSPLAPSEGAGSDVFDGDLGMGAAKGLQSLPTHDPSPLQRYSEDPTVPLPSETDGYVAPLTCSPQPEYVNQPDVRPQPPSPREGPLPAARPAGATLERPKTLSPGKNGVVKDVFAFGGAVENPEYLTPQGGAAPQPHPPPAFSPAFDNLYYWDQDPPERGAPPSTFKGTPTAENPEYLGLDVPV

[6] = target: T1, Epidermal growth factor receptor; settings: a-431
Description: Inhibition of EGF Receptor autophosphorylation in A431 cell lysate; Range = 10000-50000 nM

[7] = target: T2, Receptor tyrosine-protein kinase erbB-2; experiment: Inhibition of HER2 kinase in intact CSH12 cells; Range = 25-50 nM; type: cell-based

T1 sequence (P00533 whole entry): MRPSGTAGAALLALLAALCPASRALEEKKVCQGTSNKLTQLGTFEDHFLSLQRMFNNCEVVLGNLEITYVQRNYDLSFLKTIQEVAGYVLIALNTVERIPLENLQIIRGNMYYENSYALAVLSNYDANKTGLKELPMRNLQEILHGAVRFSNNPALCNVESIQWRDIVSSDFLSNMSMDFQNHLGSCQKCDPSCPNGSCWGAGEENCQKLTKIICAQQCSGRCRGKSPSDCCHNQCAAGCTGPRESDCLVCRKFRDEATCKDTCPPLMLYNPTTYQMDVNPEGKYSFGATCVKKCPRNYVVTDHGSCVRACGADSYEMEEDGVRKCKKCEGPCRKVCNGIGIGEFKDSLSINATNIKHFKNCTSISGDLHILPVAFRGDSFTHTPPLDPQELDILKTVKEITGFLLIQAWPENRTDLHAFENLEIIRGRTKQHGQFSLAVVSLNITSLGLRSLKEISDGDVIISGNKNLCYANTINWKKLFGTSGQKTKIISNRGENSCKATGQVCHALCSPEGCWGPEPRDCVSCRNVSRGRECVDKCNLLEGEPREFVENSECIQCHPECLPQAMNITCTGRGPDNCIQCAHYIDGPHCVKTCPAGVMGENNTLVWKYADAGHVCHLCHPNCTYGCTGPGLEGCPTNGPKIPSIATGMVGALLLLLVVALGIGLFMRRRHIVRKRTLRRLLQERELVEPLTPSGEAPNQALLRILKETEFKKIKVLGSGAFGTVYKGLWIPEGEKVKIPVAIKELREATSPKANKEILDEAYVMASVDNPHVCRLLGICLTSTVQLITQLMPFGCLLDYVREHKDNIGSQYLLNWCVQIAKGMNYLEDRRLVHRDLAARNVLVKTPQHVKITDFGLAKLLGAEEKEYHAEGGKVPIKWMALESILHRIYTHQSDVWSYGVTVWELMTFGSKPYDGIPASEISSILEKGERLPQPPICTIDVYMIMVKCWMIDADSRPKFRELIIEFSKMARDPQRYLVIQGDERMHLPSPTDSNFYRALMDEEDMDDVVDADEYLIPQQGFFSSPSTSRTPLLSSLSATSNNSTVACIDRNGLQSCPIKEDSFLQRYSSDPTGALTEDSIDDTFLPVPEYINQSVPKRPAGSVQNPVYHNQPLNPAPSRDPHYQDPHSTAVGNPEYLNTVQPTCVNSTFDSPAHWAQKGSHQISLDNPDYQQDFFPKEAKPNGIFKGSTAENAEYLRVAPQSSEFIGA

Compound	IC50 [2] [nM]	IC50 [3] [nM]	IC50 [4] [nM]	further results
COCC(=O)Nc1ccc2ncnc(Nc3cccc(I)c3)c2c1	150	50000		
O=C(CCl)Nc1ccc2ncnc(Nc3cc(Cl)c(Cl)cc3F)c2c1	0.07		> 1000	IC50 [7]: 50 nM
C=CC(=O)Nc1cc2c(Nc3cccc(Br)c3)ncnc2cc1N1CCN(C)CC1		> 500		
COc1cc2ncnc(Nc3cc(Cl)c(Cl)cc3F)c2cc1OC	0.208			

Second part, led by results:

IC50 [2] [nM]	IC50 [3] [nM]	IC50 [4] [nM]	Compound	further results
0.94	< 5		CN(C)C/C=C/C(=O)Nc1ccc2ncnc(Nc3cccc(I)c3)c2c1	IC50 [1]: < 5 nM
		> 1000	CN(C)C/C=C/C(=O)Nc1ccc2ncnc(Nc3cc(Cl)c(Cl)cc3F)c2c1	
252		> 1000	COCC(=O)Nc1ccc2ncnc(Nc3cc(Cl)c(Cl)cc3F)c2c1	IC50 [5]: > 500 nM; IC50 [6]: 50000 nM
6000	> 500		C=CC(=O)Nc1cc2c(Nc3cc(Cl)c(Cl)cc3F)ncnc2cc1N1CCN(C)CC1	IC50 [1]: 250 nM
